Data published in US11447496B2, “Nitrogen-containing fused heterocyclic ring compound and application thereof” (GUANGZHOU CHINARAY OPTOELECTRONIC MATERIALS LTD., priority 2016, dated 2022).
Values after ≈ are worked out from the molar mass of the structure shown. Read-outs that look alike come from different tables or passages of the source.

Assay: Solubility in toluene, xylene and chloroform at 25° C.
Type: physicochemical
Details: organic solvent or mixture
Method: 1. A solubility (mg/mL) of compounds of Examples 1 to 11 and CBP, i.e., 4,4′-bis(9H-carbazol-9-yl)biphenyl, in toluene, xylene and chloroform was measured. The test temperature was 25° C.

[1] = chloroform, in chloroform, read-out: Solubility Chloroform
[2] = chloroform, in chloroform, read-out: solubility in chloroform (text summary of Table 1)
[3] = toluene, in toluene, read-out: Solubility Toluene
[4] = toluene, in toluene, read-out: solubility in toluene (text summary of Table 1)
[5] = xylene, in xylene, read-out: Solubility Xylene
[6] = xylene, in xylene, read-out: solubility in xylene (text summary of Table 1)

| SMILES | solubility [1] [mg/mL] | solubility [2] [mg/mL] | solubility [3] [mg/mL] | solubility [4] [mg/mL] | solubility [5] [mg/mL] | solubility [6] [mg/mL] |
| --- | --- | --- | --- | --- | --- | --- |
| c1ccc(-c2nc(-c3ccc4c(c3)C3(c5ccccc5Sc5ccccc53)c3ccccc3-4)nc(-n3c4ccccc4c4ccc5c6ccccc6n(-c6ccccc6)c5c43)n2)cc1 [Example 9] | 434 (≈ 520 mM) | > 300 | 285 (≈ 342 mM) | > 200 | 354 (≈ 424 mM) | > 240 |
| c1ccc(-c2nc(-c3cccc4c3-c3ccccc3C43c4ccccc4-c4ccccc43)nc(-n3c4ccccc4c4c5c6ccccc6n(-c6ccccc6)c5ccc43)n2)cc1 [Example 3] | 285 (≈ 355 mM) | > 300 | 200 (≈ 249 mM) | > 200 | 243 (≈ 303 mM) | > 240 |
| c1ccc(-c2nc(-c3ccc4c(c3)C3(c5ccccc5-4)c4ccccc4N(c4ccccc4)c4ccccc43)nc(-n3c4ccccc4c4cc5c6ccccc6n(-c6ccccc6)c5cc43)n2)cc1 [Example 10] | 344 (≈ 385 mM) | > 300 | 220 (≈ 246 mM) | > 200 | 284 (≈ 318 mM) | > 240 |
| [2H]c1cc2c3ccccc3n(-c3nc(-c4ccccc4)cc(-c4ccc5c(c4)-c4ccccc4C54c5ccccc5-c5ccccc54)n3)c2c2c3ccccc3n(-c3ccccc3)c12 [Example 11] | 374 (≈ 466 mM) | > 300 | 268 (≈ 334 mM) | > 200 | 313 (≈ 390 mM) | > 240 |
| c1ccc2c(c1)c1ccccc1n2-c1ccc(-c2ccc(-n3c4ccccc4c4ccccc43)cc2)cc1 [CBP, 4,4′-bis(9H-carbazol-9-yl)biphenyl, reference compound] | 185 (≈ 382 mM) | – | 130 (≈ 268 mM) | – | 153 (≈ 316 mM) | – |
| c1ccc(-c2nc(-c3cccc4c3-c3ccccc3C43c4ccccc4-c4ccccc43)nc(-n3c4ccccc4c4cc5c6ccccc6n(-c6ccccc6)c5cc43)n2)cc1 [Example 2] | 294 (≈ 367 mM) | > 300 | 205 (≈ 256 mM) | > 200 | 256 (≈ 319 mM) | > 240 |
| c1ccc(-c2nc(-c3cccc4c3-c3ccccc3C43c4ccccc4-c4ccccc43)nc(-n3c4ccccc4c4ccc5c6ccccc6n(-c6ccccc6)c5c43)n2)cc1 [Example 1] | 410 (≈ 511 mM) | > 300 | 250 (≈ 312 mM) | > 200 | 320 (≈ 399 mM) | > 240 |
| CC1(C)c2ccccc2-c2ccc3c4ccccc4n(-c4nc(-c5ccccc5)nc(-c5cccc6c5-c5ccccc5C65c6ccccc6-c6ccccc65)n4)c3c21 [Example 8] | 510 (≈ 677 mM) | > 300 | 400 (≈ 531 mM) | > 200 | 452 (≈ 600 mM) | > 240 |
| CC1(C)c2ccccc2N(c2ccccc2)c2cc3c(cc21)N(c1nc(-c2ccccc2)cc(-c2cccc4c2-c2ccccc2C42c4ccccc4-c4ccccc42)n1)c1ccccc1C3(C)C [Example 7] | 473 (≈ 534 mM) | > 300 | 362 (≈ 409 mM) | > 200 | 405 (≈ 458 mM) | > 240 |
| c1ccc(-c2cc(-c3ccc4c(c3)-c3ccccc3C43c4ccccc4-c4ccccc43)nc(N3c4ccccc4Oc4ccc5c(c43)c3ccccc3n5-c3ccccc3)n2)cc1 [Example 4] | 430 (≈ 526 mM) | > 300 | 305 (≈ 373 mM) | > 200 | 362 (≈ 443 mM) | > 240 |
| CC1(C)c2ccccc2N(c2nc(-c3ccccc3)nc(-c3ccc4c(c3)-c3ccccc3C43c4ccccc4-c4ccccc43)n2)c2cc3c(cc21)c1ccccc1n3-c1ccccc1 [Example 5] | 445 (≈ 527 mM) | > 300 | 330 (≈ 391 mM) | > 200 | 376 (≈ 445 mM) | > 240 |
| CC1(C)c2ccccc2N(c2nc(-c3ccccc3)nc(-c3cccc4c3-c3ccccc3C43c4ccccc4-c4ccccc43)n2)c2ccc3c4ccccc4n(-c4ccccc4)c3c21 [Example 6] | 460 (≈ 545 mM) | > 300 | 350 (≈ 415 mM) | > 200 | 392 (≈ 464 mM) | > 240 |
